Each structure is given as a SMILES string.

This note sets out measurements from patent US6921770B2 (priority 2000, dated 2005).

This assay deals with rice blast fungi. In kind it is in vivo, Pyricularia grisea.
With `Cn1c(CC(=O)Nc2ccccc2)csc1=Nc1ccc(F)cc1F` [Compound 331, 2-(2,4-difluorophenylimino)-3-methyl-4-[N-phenylcarbamoylmethyl]-1,3-thiazol-4-ine], the “Inhibiting Ratio (%) (at 250 ppm)” value is given as 96%.

Turning to `Br.CC(C)Oc1cc(N=c2scc(CC(=O)Nc3ccccc3)n2C)c(F)cc1Cl` [Compound 69, 2-(4-chloro-2-fluoro-5-isoproxyphenylimino)-3-methyl-4-(N-phenylcarbamoylmethyl)-1,3-thiazol-4-ine hydrobromide], the “Inhibiting Ratio (%) (at 250 ppm)” value was determined as 96%.

For the compound `Cl.Cn1c(CC(=O)Nc2ccc(Br)cc2)csc1=Nc1ccc(C(F)(F)F)cc1` [Compound 132, 2-(4-trifluoromethylphenylimino)-3-methyl-4-[N-(4-bromophenyl)carbamoylmethyl]-1,3-thiazol-4-ine hydrochloride], the “Inhibiting Ratio (%) (at 250 ppm)” value is 99%.

With `Br.Cc1ccc(F)c(N=c2scc(CC(=O)Nc3ccccc3)n2C)c1` [Compound 44, 2-(2-fluoro-5-methylphenylimino)-3-methyl-4-(N-phenylcarbamoylmethyl)-1,3-thiazol-4-ine hydrobromide], the “Inhibiting Ratio (%) (at 250 ppm)” value is on record as 95%.

Consider `COc1ccc(C)cc1N=c1scc(CC(=O)Nc2ccc(C)c(Cl)c2)n1C.Cl` [Compound 239, 2-(2-methoxy-5-methylphenylimino)-3-methyl-4-[N-(3-chloro-4-methylphenyl)carbamoylmethyl]-1,3-thiazol-4-ine hydrochloride], for which the “Inhibiting Ratio (%) (at 250 ppm)” value was found to be 92%.

Take `Br.Cc1ccc(NC(=O)Cc2csc(=Nc3cc(C)ccc3F)n2C)cc1` [Compound 52, 2-(2-fluoro-5-methylphenylimino)-3-methyl-4-[N-(4-methylphenyl)carbamoylmethyl]-1,3-thiazol-4-ine hydrobromide]: the “Inhibiting Ratio (%) (at 250 ppm)” value worked out at 99%.

As for `Cc1ccc(N=c2scc(CC(=O)Nc3ccc(Br)cc3)n2C)c(C)c1.Cl` [Compound 135, 2-(2,4-dimethylphenylimino)-3-methyl-4-[N-(4-bromophenyl)carbamoylmethyl]-1,3-thiazol-4-ine hydrochloride], the “Inhibiting Ratio (%) (at 250 ppm)” value was 98%.

For `Cc1ccc(NC(=O)Cc2csc(=Nc3ccccc3F)n2C)cc1.Cl` [Compound 167, 2-(2-fluorophenylimino)-3-methyl-4-[N-(4-methylphenyl)carbamoylmethyl]-1,3-thiazol-4-ine hydrochloride], the “Inhibiting Ratio (%) (at 250 ppm)” value amounted to 88%.

As to `Cl.Cn1c(CC(=O)Nc2ccccc2F)csc1=Nc1ccc(Cl)cc1F` [Compound 150, 2-(4-chloro-2-fluorophenylimino)-3-methyl-4-[N-(2-fluorophenyl)carbamoylmethyl]-1,3-thiazol-4-ine hydrochloride], the “Inhibiting Ratio (%) (at 250 ppm)” value is 96%.

In the case of `Br.COc1ccccc1NC(=O)Cc1csc(=Nc2ccc(C(C)(C)C)cc2)n1C` [Compound 327, 2-(4-butyl(t-)phenylimino)-3-methyl-4-[N-(2-methoxyphenyl)carbamoylmethyl]-1,3-thiazol-4-ine hydrobromide], the “Inhibiting Ratio (%) (at 250 ppm)” value is reported as 62%.

`Cl.Cn1c(CC(=O)Nc2ccc(Br)cc2)csc1=Nc1ccccc1F` [Compound 148, 2-(2-fluorophenylimino)-3-methyl-4-[N-(4-bromophenyl)carbamoylmethyl]-1,3-thiazol-4-ine hydrochloride]: the “Inhibiting Ratio (%) (at 250 ppm)” value is recorded as 95%.

`Br.CCc1ccc(N=c2scc(CC(=O)Nc3ccc(Cl)cc3)n2C)cc1` [Compound 304, 2-(4-ethylphenylimino)-3-methyl-4-[N-(4-chlorophenyl)carbamoylmethyl]-1,3-thiazol-4-ine hydrobromide]: the “Inhibiting Ratio (%) (at 250 ppm)” value was 100%.

With `Br.Cc1ccc(NC(=O)Cc2csc(=Nc3ccc(Cl)cc3C)n2C)cc1` [Compound 32, 2-(4-chloro-2-methylphenylimino)-3-methyl-4-[N-(4-methylphenyl)carbamoylmethyl]-1,3-thiazol-4-ine hydrobromide], the “Inhibiting Ratio (%) (at 250 ppm)” value is 100%.

As to `Cl.Cn1c(CC(=O)Nc2ccccc2F)csc1=Nc1cccc(Cl)c1` [Compound 90, 2-(3-chlorophenylimino)-3-methyl-4-[N-(2-fluoro)phenylcarbamoylmethyl]-1,3-thiazol-4-ine hydrochloride], the “Inhibiting Ratio (%) (at 250 ppm)” value is listed as 91%.

For `Br.Cn1c(CC(=O)Nc2ccc(Cl)cc2)csc1=Nc1ccc(F)cc1` [Compound 316, 2-(4-fluorophenylimino)-3-methyl-4-[N-(4-chlorophenyl)carbamoylmethyl]-1,3-thiazol-4-ine hydrobromide], the “Inhibiting Ratio (%) (at 250 ppm)” value is on record as 100%.

For `Cc1ccc(N=c2scc(CC(=O)Nc3ccc(Cl)cc3)n2C)c(C)c1.Cl` [Compound 154, 2-(2,4-dimethylphenylimino)-3-methyl-4-(N-(4-chlorophenyl)carbamoylmethyl)-1,3-thiazol-4-ine hydrochloride], the “Inhibiting Ratio (%) (at 250 ppm)” value is listed as 93%.

Turning to `Cl.Cn1c(CC(=O)Nc2ccc(Cl)cc2)csc1=Nc1ccc(Cl)cc1F` [Compound 158, 2-(4-chloro-2-fluorophenylimino)-3-methyl-4-[N-(4-chlorophenyl)carbamoylmethyl]-1,3-thiazol-4-ine hydrochloride], the “Inhibiting Ratio (%) (at 250 ppm)” value is reported as 90%.

Turning to `Cl.Cn1c(CC(=O)Nc2ccc(Cl)cc2)csc1=Nc1cccc(Br)c1` [Compound 156, 2-(3-bromophenylimino)-3-methyl-4-[N-(4-chlorophenyl)carbamoylmethyl]-1,3-thiazol-4-ine hydrochloride], the “Inhibiting Ratio (%) (at 250 ppm)” value was determined as 96%.

For `Cc1ccc(NC(=O)Cc2csc(=Nc3ccc(Br)cc3)n2C)cc1.Cl` [Compound 162, 2-(4-bromophenylimino)-3-methyl-4-[N-(4-methylphenyl)carbamoylmethyl]-1,3-thiazol-4-ine hydrochloride], the “Inhibiting Ratio (%) (at 250 ppm)” value stood at 89%.

As for `COc1ccc(NC(=O)Cc2csc(=Nc3ccc(C#N)cc3)n2C)cc1` [Compound 330, 2-(4-cyanophenylimino)-3-methyl-4-[N-(4-methoxyphenyl)carbamoylmethyl]-1,3-thiazol-4-ine], the “Inhibiting Ratio (%) (at 250 ppm)” value was found to be 100%.

On to `Br.Cc1ccc(NC(=O)Cc2csc(=Nc3ccc([N+](=O)[O-])cc3F)n2C)cc1` [Compound 55, 2-(2-fluoro-4-nitrophenylimino)-3-methyl-4-[N-(4-methylphenyl)carbamoylmethyl]-1,3-thiazol-4-ine hydrobromide], for which the “Inhibiting Ratio (%) (at 250 ppm)” value is reported as 96%.

For `Br.CCCCc1ccc(N=c2scc(CC(=O)Nc3cccc(Cl)c3)n2C)cc1` [Compound 56, 2-[4-(n-butyl)phenylimino]-3-methyl-4-[N-(3-chlorophenyl)carbamoylmethyl]-1,3-thiazol-4-ine hydrobromide], the “Inhibiting Ratio (%) (at 250 ppm)” value amounted to 96%.

With `Cl.Cn1c(CC(=O)Nc2ccc(Cl)cc2)csc1=Nc1ccc(F)cc1F` [Compound 159, 2-(2,4-difluorophenylimino)-3-methyl-4-[N-(4-chlorophenyl)carbamoylmethyl]-1,3thiazol-4-ine hydrochloride], the “Inhibiting Ratio (%) (at 250 ppm)” value is recorded as 92%.

As to `Br.Cc1ccc(NC(=O)Cc2csc(=Nc3ccc(OC(F)(F)F)cc3)n2C)cc1` [Compound 47, 2-(4-trifluoromethoxyphenylimino)-3-methyl-4-[N-(4-methylphenyl)carbamoylmethyl]-1,3-thiazol-4-ine hydrobromide], the “Inhibiting Ratio (%) (at 250 ppm)” value was 100%.

With `Cl.Cn1c(CC(=O)Nc2ccc(Br)cc2)csc1=Nc1ccc(OC(F)(F)F)cc1` [Compound 139, 2-(4-trifluoromethoxyphenylimino)-3-methyl-4-[N-(4-bromophenyl)carbamoylmethyl]-1,3-thiazol-4-ine hydrochloride], the “Inhibiting Ratio (%) (at 250 ppm)” value turned out to be 99%.

In the case of `Cl.Cn1c(CC(=O)Nc2ccc(Br)cc2)csc1=Nc1ccc(F)cc1F` [Compound 133, 2-(2,4-difluorophenylimino)-3-methyl-4-[N-(4-bromophenyl)carbamoylmethyl]-1,3-thiazol-4-ine hydrochloride], the “Inhibiting Ratio (%) (at 250 ppm)” value is 99%.

`Br.COc1ccc(NC(=O)Cc2csc(=Nc3ccc(Br)cc3)n2C)cc1` [Compound 318, 2-(4-bromophenylimino)-3-methyl-4-[N-(4-methoxyphenyl)carbamoylmethyl]-1,3-thiazol-4-ine hydrobromide]: the “Inhibiting Ratio (%) (at 250 ppm)” value is given as 100%.

As to `Cc1cccc(NC(=O)Cc2csc(=Nc3cc(OC(C)C)c(Cl)cc3F)n2C)c1` [Compound 333, 2-(2-fluoro-4-chloro-5-isopropoxyphenylimino)-3-methyl-4-[N-(3-methylphenyl)carbamoylmethyl]-1,3-thiazol-4-ine], the “Inhibiting Ratio (%) (at 250 ppm)” value stood at 98%.

On to `Br.COc1ccc(NC(=O)Cc2csc(=Nc3ccc(C(C)(C)C)cc3)n2C)cc1` [Compound 326, 2-(4-butyl(t-)phenylimino)-3-methyl-4-[N-(4-methoxyphenyl)carbamoylmethyl]-1,3-thiazol-4-ine hydrobromide], for which the “Inhibiting Ratio (%) (at 250 ppm)” value is given as 97%.

In the case of `Br.CCCCc1ccc(N=c2scc(CC(=O)Nc3ccc(C)cc3)n2C)cc1` [Compound 30, 2-[4-(n-butyl)phenylimino]-3-methyl-4-[N-(4-methylphenyl)carbamoylmethyl]-1,3-thiazol-4-ine hydrobromide], the “Inhibiting Ratio (%) (at 250 ppm)” value is given as 100%.

As to `Cl.Cn1c(CC(=O)Nc2ccc(Cl)cc2)csc1=Nc1cccc(F)c1` [Compound 129, 2-(3-fluorophenylimino)-3-methyl-4-[N-(4-chlorophenyl)carbamoylmethyl]-1,3-thiazol-4-ine hydrochloride], the “Inhibiting Ratio (%) (at 250 ppm)” value stood at 96%.

For the compound `Br.COc1ccc(NC(=O)Cc2csc(=Nc3ccc(Oc4ccccc4)cc3)n2C)cc1` [Compound 320, 2-(4-phenoxyphenylimino)-3-methyl-4-[N-(4-methoxyphenyl)carbamoylmethyl]-1,3-thiazol-4-ine hydrobromide], the “Inhibiting Ratio (%) (at 250 ppm)” value came out at 100%.

Turning to `Br.COc1ccc(N=c2scc(CC(=O)Nc3ccc(C)cc3)n2C)cc1` [Compound 29, 2-(4-methoxyphenylimino)-3-methyl-4-[N-(4-methylphenyl)carbamoylmethyl]-1,3-thiazol-4-ine hydrobromide], the “Inhibiting Ratio (%) (at 250 ppm)” value stood at 100%.
